Laboratory results taken from patent publication US12540120B2, “Herbicidal compounds” (SYNGENTA CROP PROTECTION AG, priority 2019, dated 2026).

Assays:
Format in all cases: in vivo
[1] = tested on: Amaranthus retoflexus (AMARE); experiment: B5 Pre-Emergence Efficacy—Test 2; conditions: 250 g/ha, evaluated after 13 days
How it was run: (§1)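 Damage rated 13 days after treatment on a 1–5 scale (1=0-19%, 5=80-100%). Compounds applied at 250 g/ha as an acetone/water (50:50) spray containing 0.5% Tween 20, one day after sowing in soil, with glasshouse conditions of 24/16° C, 14 h light and 65% humidity.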

Solanum nigrum (SOLNI) [2] = experiment: B5 Pre-Emergence Efficacy—Test 2; conditions: 250 g/ha, evaluated after 13 days
How it was run: as §1

Setaria faberi (SETFA) [3] = experiment: B5 Pre-Emergence Efficacy—Test 2; parameters: key: 5-point scale: 5=80-100%, 4=60-79%, 3=40-59%, 2=20-39%, 1=0-19% damage; conditions: 250 g/ha, evaluated after 13 days
How it was run: as §1

Lolium perenne (LOLPE) [4] = experiment: B5 Pre-Emergence Efficacy—Test 2; parameters: key: 5-point scale: 5=80-100%, 4=60-79%, 3=40-59%, 2=20-39%, 1=0-19% damage; conditions: 250 g/ha, evaluated after 13 days
How it was run: as §1

[5] = tested on: Echinochloa crus-galli (ECHCG); experiment: B5 Pre-Emergence Efficacy—Test 2; parameters: key: 5-point scale: 5=80-100%, 4=60-79%, 3=40-59%, 2=20-39%, 1=0-19% damage; conditions: 250 g/ha, evaluated after 13 days
How it was run: as §1

[6] = tested on: Ipomoea hederacea (IPOHE); experiment: B5 Pre-Emergence Efficacy—Test 2; parameters: key: 5-point scale: 5=80-100%, 4=60-79%, 3=40-59%, 2=20-39%, 1=0-19% damage; conditions: 250 g/ha, evaluated after 13 days
How it was run: as §1

[7] = tested on: Amaranthus retoflexus (AMARE); experiment: B2 Post-Emergence Efficacy—Test 2; conditions: post-emergence application, 250 g/ha, evaluated after 13 days (Test 2)
How it was run: (§2)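 Damage rated 13 days after treatment on a 1–5 scale (1=0-19%, 5=80-100%). Compounds were applied at 250 g/ha in acetone/water (50:50) with 0.5% Tween 20 to 8-day-old seedlings, grown under glasshouse conditions of 24/16 °C day/night, 14 h light, 65% humidity.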

Setaria faberi (SETFA) [8] = experiment: B2 Post-Emergence Efficacy—Test 2; conditions: post-emergence application, 250 g/ha, evaluated after 13 days (Test 2)
How it was run: as §2

Solanum nigrum (SOLNI) [9] = experiment: B2 Post-Emergence Efficacy—Test 2; conditions: post-emergence application, 250 g/ha, evaluated after 13 days (Test 2)
How it was run: as §2

Lolium perenne (LOLPE) [10] = experiment: B2 Post-Emergence Efficacy—Test 2; conditions: post-emergence application, 250 g/ha, evaluated after 13 days (Test 2)
How it was run: as §2

[11] = tested on: Echinochloa crus-galli (ECHCG); experiment: B2 Post-Emergence Efficacy—Test 2; conditions: post-emergence application, 250 g/ha, evaluated after 13 days (Test 2)
How it was run: as §2

[12] = tested on: Ipomoea hederacea (IPOHE); experiment: B2 Post-Emergence Efficacy—Test 2; conditions: post-emergence application, 250 g/ha, evaluated after 13 days (Test 2)
How it was run: as §2

| Compound | Control of weed species after pre-emergence application, AMARE (percentage damage, five point scale) [1] | Control of weed species after pre-emergence application, SOLNI (percentage damage, five point scale) (Solanum nigrum (SOLNI) [2]) | Control of weed species after pre-emergence application, SETFA (percentage damage, five point scale) (Setaria faberi (SETFA) [3]) | Control of weed species after pre-emergence application, LOLPE (percentage damage, five point scale) (Lolium perenne (LOLPE) [4]) | Control of weed species after pre-emergence application, ECHCG (percentage damage, five point scale) [5] | Control of weed species after pre-emergence application, IPOHE (percentage damage, five point scale) [6] | percentage damage caused to the plant, five point scale, AMARE [7] | percentage damage caused to the plant, five point scale, SETFA (Setaria faberi (SETFA) [8]) | percentage damage caused to the plant, five point scale, SOLNI (Solanum nigrum (SOLNI) [9]) | percentage damage caused to the plant, five point scale, LOLPE (Lolium perenne (LOLPE) [10]) | percentage damage caused to the plant, five point scale, ECHCG [11] | percentage damage caused to the plant, five point scale, IPOHE [12] |
| --- | --- | --- | --- | --- | --- | --- | --- | --- | --- | --- | --- | --- |
| Cc1nn(C)c(=O)c(-c2c(F)ccc(Cl)c2CCc2ccc(-c3cccs3)cc2)c1O [Compound A-1.384] | 2 (2=20-39%) | 1 (1=0-19%) | 0 | 0 | 0 | 2 (2=20-39%) | 5 (5=80-100%) | 5 (5=80-100%) | 5 (5=80-100%) | 4 (4=60-79%) | 3 (3=40-59%) | 5 (5=80-100%) |
| COC(=O)c1ccc(CCc2c(Cl)ccc(F)c2-c2c(O)c(C)nn(C)c2=O)cc1 [Compound A-1.041] | 4 (4=60-79%) | 0 | 0 | 0 | 0 | 0 | 5 (5=80-100%) | 4 (4=60-79%) | 5 (5=80-100%) | 1 (1=0-19%) | 1 (1=0-19%) | 2 (2=20-39%) |
| Cc1nn(C)c(=O)c(-c2c(F)ccc(Cl)c2CCc2ccc(C(C)(C)C)cc2)c1O [Compound A-1.026] | 0 | 0 | 0 | 0 | 0 | 0 | 4 (4=60-79%) | 2 (2=20-39%) | 4 (4=60-79%) | 1 (1=0-19%) | 0 | 0 |
| Cc1nn(C)c(=O)c(-c2c(F)ccc(Cl)c2CCc2ccc(NC(=O)OC(C)(C)C)c(F)c2)c1O [Compound A-1.042] | 5 (5=80-100%) | 5 (5=80-100%) | 5 (5=80-100%) | 1 (1=0-19%) | 2 (2=20-39%) | 2 (2=20-39%) | 5 (5=80-100%) | 5 (5=80-100%) | 5 (5=80-100%) | 5 (5=80-100%) | 5 (5=80-100%) | 3 (3=40-59%) |
| Cc1nn(C)c(=O)c(-c2c(F)ccc(Cl)c2CCc2ccc(OC(C)(C)C)cc2)c1O [Compound A-1.035] | 4 (4=60-79%) | 3 (3=40-59%) | 3 (3=40-59%) | 3 (3=40-59%) | 1 (1=0-19%) | 1 (1=0-19%) | 4 (4=60-79%) | 4 (4=60-79%) | 5 (5=80-100%) | 4 (4=60-79%) | 4 (4=60-79%) | 4 (4=60-79%) |
| Cc1nn(C)c(=O)c(-c2c(F)ccc(Cl)c2CCc2ccc(S(C)(=O)=O)cc2)c1O [Compound A-1.032] | 5 (5=80-100%) | 5 (5=80-100%) | 5 (5=80-100%) | 5 (5=80-100%) | 5 (5=80-100%) | 2 (2=20-39%) | 5 (5=80-100%) | 5 (5=80-100%) | 5 (5=80-100%) | 5 (5=80-100%) | 5 (5=80-100%) | 5 (5=80-100%) |
| Cc1nn(C)c(=O)c(-c2c(F)ccc(Cl)c2CCc2cccc(C#N)c2)c1O [Compound A-1.030] | 5 (5=80-100%) | 5 (5=80-100%) | 5 (5=80-100%) | 4 (4=60-79%) | 5 (5=80-100%) | 0 | 4 (4=60-79%) | 4 (4=60-79%) | 5 (5=80-100%) | 5 (5=80-100%) | 4 (4=60-79%) | 5 (5=80-100%) |
| CSc1ccc(CCc2c(Cl)ccc(F)c2-c2c(O)c(C)nn(C)c2=O)cc1 [Compound A-1.039, 4-[3-chloro-6-fluoro-2-[2-(4-methylsulfanylphenyl)ethyl]-phenyl]-5-hydroxy-2,6-dimethyl-pyridazin-3-one] | 5 (5=80-100%) | 5 (5=80-100%) | 5 (5=80-100%) | 4 (4=60-79%) | 5 (5=80-100%) | 3 (3=40-59%) | 5 (5=80-100%) | 5 (5=80-100%) | 5 (5=80-100%) | 5 (5=80-100%) | 5 (5=80-100%) | 5 (5=80-100%) |
